Common to all, as to assay: pNPG enzyme inhibition assay, % inhibition at […]; also affinity ultrafiltration LC-MS (PAR […])
Common to all, as to type: biochemical
What all share (details): read-out: Inhibitory (%)

Experiment [1] concerns the target T1, α-Glucosidase (Saccharomyces cerevisiae, UniProt P53341).
T1 construct: gene MAL12

For experiment [2], the target named is T1, α-Glucosidase. This is another data set of the same source.
Experiment [3] deals with T1, α-Glucosidase. The source holds these as a separate data set.

Read-outs that look alike come from different tables or passages of the source.

T1 sequence (P53341 whole entry): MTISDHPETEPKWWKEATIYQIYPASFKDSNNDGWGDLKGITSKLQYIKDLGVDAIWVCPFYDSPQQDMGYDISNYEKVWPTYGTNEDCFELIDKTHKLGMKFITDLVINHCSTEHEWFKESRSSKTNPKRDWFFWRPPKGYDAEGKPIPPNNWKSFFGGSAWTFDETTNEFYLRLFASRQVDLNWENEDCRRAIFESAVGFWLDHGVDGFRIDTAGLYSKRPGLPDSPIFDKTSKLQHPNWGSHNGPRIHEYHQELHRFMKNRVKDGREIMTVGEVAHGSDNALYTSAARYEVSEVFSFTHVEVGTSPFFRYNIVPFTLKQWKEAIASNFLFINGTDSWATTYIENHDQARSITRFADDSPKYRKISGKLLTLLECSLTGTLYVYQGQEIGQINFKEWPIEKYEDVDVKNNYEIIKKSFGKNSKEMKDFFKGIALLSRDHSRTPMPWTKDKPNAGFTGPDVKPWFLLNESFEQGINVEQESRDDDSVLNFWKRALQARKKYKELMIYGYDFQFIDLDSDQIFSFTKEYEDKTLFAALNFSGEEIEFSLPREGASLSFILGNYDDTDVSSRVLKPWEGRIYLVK

As to `C=C(CCC=C(C)C)[C@H]1CC[C@]2(C)C1[C@H](O)CC1[C@@]3(C)CC[C@H](O)C(C)(C)C3[C@@H](OC3O[C@H](CO)[C@@H](O)[C@H](O)[C@H]3OC3O[C@@H](C)[C@H](O)[C@@H](O)[C@H]3O)C[C@]12C` (stereo partly drawn) [R3, ginsenoside Rg6], the inhibition at 40000 µM on α-Glucosidase [1] was 27.4%.

Turning to `CC(C)=CCC[C@](C)(OC1O[C@H](COC2O[C@@H](CO)[C@H](O)[C@H]2OC2OC[C@@H](O)[C@H](O)[C@H]2O)[C@@H](O)[C@H](O)[C@H]1O)C1CC[C@]2(C)C1[C@H](O)CC1[C@@]3(C)CC[C@H](OC4O[C@H](CO)[C@@H](O)[C@H](O)[C@H]4OC4O[C@H](CO)[C@@H](O)[C@H](O)[C@H]4O)C(C)(C)C3CC[C@]12C` (stereo partly drawn) [R11, ginsenoside Ra2], at α-Glucosidase [2], the inhibition at 40000 µM is 29.5%.

`CC1(C)CC[C@]2(C(=O)O[C@@H]3O[C@H](CO)[C@@H](O)[C@H](O)[C@H]3O)CC[C@]3(C)C(=CC[C@@H]4[C@@]5(C)CC[C@H](O[C@@H]6O[C@H](C(=O)O)[C@@H](O)[C@H](O)[C@H]6O[C@@H]6O[C@H](CO)[C@@H](O)[C@H](O)[C@H]6O)C(C)(C)[C@@H]5CC[C@]43C)[C@@H]2C1` [R8, ginsenoside Ro]: the inhibition at 40000 µM on α-Glucosidase [3] came to 20.2%.

These data come from PMC10004417, “Screening of Potential α-Glucosidase Inhibitors from the Roots and Rhizomes of Panax Ginseng by Affinity Ultrafiltration Screening Coupled with UPLC-ESI-Orbitrap-MS Method” (Molecules, 2023).
